Assay results: ChEMBL document CHEMBL3400043, “Design, synthesis and biological evaluation of GY3-based derivatives for anti-type 2 diabetes activity” (Bioorg Med Chem Lett, 2015)
Active and inactive are the calls of the source. The calls are words filed in the database; no cut-off is given here.

Experiments:
HepG2 [1] = assay: Induction of glucose consumption in human HepG2 cells at 10^-5 M after 24 hrs by glucose oxidase method (reference value: 2 +/- 0.09 mM); assay type: functional
HepG2 [2] = assay: Induction of glucose consumption in human HepG2 cells at 10^-5 M after 24 hrs by glucose oxidase method relative to control; assay type: functional
[3] = molecular target: T1, Peroxisome proliferator-activated receptor gamma (Homo sapiens) (UniProt P37231); assay: Agonist activity at human PPARgamma expressed in U2OS cells coexpressing human RXR assessed as luciferase activity at 10 uM after 24 hrs by transactivation assay relative to control; assay type: cell-based
T1 sequence (whole entry): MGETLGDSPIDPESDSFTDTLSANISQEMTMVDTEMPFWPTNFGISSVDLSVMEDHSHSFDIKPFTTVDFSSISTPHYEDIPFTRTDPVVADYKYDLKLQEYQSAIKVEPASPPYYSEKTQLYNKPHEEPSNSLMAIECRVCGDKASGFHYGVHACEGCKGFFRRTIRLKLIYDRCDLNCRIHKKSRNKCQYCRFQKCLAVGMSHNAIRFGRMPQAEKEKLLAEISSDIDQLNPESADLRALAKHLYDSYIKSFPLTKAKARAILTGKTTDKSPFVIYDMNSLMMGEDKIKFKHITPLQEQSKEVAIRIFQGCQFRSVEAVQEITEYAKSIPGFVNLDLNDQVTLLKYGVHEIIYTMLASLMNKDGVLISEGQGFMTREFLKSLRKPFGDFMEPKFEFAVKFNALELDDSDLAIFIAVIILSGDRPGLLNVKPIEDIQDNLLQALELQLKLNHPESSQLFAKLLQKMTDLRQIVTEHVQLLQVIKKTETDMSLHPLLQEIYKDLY

HepG2 [4] = assay: Induction of glucose consumption in human HepG2 cells at 10^-6 M after 24 hrs by glucose oxidase method relative to control; assay type: functional
HepG2 [5] = assay: Induction of glucose consumption in human HepG2 cells at 10^-7 M after 24 hrs by glucose oxidase method relative to control; assay type: functional
Mus musculus [6] = assay: Hypoglycemic effect in eight week old female db/db mouse assessed as reduction in blood glucose level at 30 mg/kg, intragastric for 1 week; assay type: functional; conditions: po, 168 h
Mus musculus [7] = assay: Hypoglycemic effect in eight week old female db/db mouse assessed as reduction in blood glucose level at 30 mg/kg, intragastric for 3 weeks; assay type: functional; conditions: po, 504 h
Mus musculus [8] = assay: Toxicity in eight week old female db/db mouse assessed as effect on body weight at 30 mg/kg, intragastric for 3 weeks; assay type: organism-based; set-up: dose 30 mg/kg, route intragastric; conditions: in vivo, po, 504 h
Mus musculus [9] = assay: Reduction in total cholesterol level in eight week old female db/db mouse at 30 mg/kg, intragastric for 3 weeks; assay type: functional, organism-based; set-up: dose 30 mg/kg
Mus musculus [10] = assay: Hypoglycemic effect in eight week old female db/db mouse assessed as reduction in blood glucose level at 30 mg/kg, intragastric for 2 weeks; assay type: functional; conditions: po, 336 h
Mus musculus [11] = assay: Toxicity in eight week old female db/db mouse assessed as body weight increase at 30 mg/kg, intragastric for 3 weeks; assay type: organism-based; set-up: dose 30 mg/kg, route intragastric; conditions: in vivo, po, 504 h
Mus musculus [12] = assay: Hypoglycemic effect in eight week old female db/db mouse assessed as reduction in fasting triglyceride level at 30 mg/kg, intragastric for 3 weeks; assay type: functional, organism-based; set-up: dose 30 mg/kg
HepG2 [13] = assay: Induction of glucose consumption in human HepG2 cells at 10^-3 M after 24 hrs by glucose oxidase method relative to control; assay type: functional
HepG2 [14] = assay: Induction of glucose consumption in human HepG2 cells at 10^-3 M after 24 hrs by glucose oxidase method (reference value: 2 +/- 0.09 mM); assay type: functional

COc1ccc(CC(=O)N2c3ccc(OCc4ccccc4)cc3[C@H](CC(=O)O)[C@H]2C)cc1OC
Activity (HepG2 [1]): 2.2 mM | Activity (HepG2 [2]): 9.9% | Ratio [3]: 2

C[C@@H]1[C@@H](CC(=O)O)c2cc(OCc3ccccc3)ccc2N1C(=O)Cc1ccc(Cl)cc1
Activity (HepG2 [1]): 2.35 mM | Activity (HepG2 [2]): 17% | Ratio [3]: 2.2

C[C@@H]1[C@@H](CC(=O)O)c2cc(OCc3ccccc3)ccc2N1C(=O)c1ccc(Cl)cc1
Activity (HepG2 [1]): 2.4 mM | Activity (HepG2 [2]): 20% | Ratio [3]: 3.51

Cc1c(CCCC(=O)O)c2cc(OCc3ccccc3)ccc2n1S(=O)(=O)c1ccc(Cl)cc1
Activity (HepG2 [1]): 2.78 mM | Activity (HepG2 [2]): 38.9% | Ratio [3]: 2.44 | Activity (HepG2 [4]): 15.3% | Activity (HepG2 [5]): 18.2% | inhibition in vivo at 30 mg/kg (Mus musculus [6]): > 25% | inhibition in vivo at 30 mg/kg (Mus musculus [7]): 13.9% | Activity (Mus musculus [8]): Non-toxic | inhibition (Mus musculus [9]): Active

CN(CCOc1ccc(CC2SC(=O)NC2=O)cc1)c1ccccn1 (stereo not drawn) [ROSIGLITAZONE]
Activity (HepG2 [1]): 2.53 mM | Activity (HepG2 [2]): 26.5%

C[C@@H]1[C@@H](CC(=O)O)c2cc(OCc3ccncc3)ccc2N1C(=O)c1ccc(Cl)cc1
Activity (HepG2 [1]): 1.7 mM | Activity (HepG2 [2]): -15.4% | Ratio [3]: 1.49

C[C@@H]1[C@@H](CC(=O)O)c2cc(OCc3ccccc3)ccc2N1C(=O)c1ccc(C#N)cc1
Activity (HepG2 [1]): 2.26 mM | Activity (HepG2 [2]): 12.6% | Ratio [3]: 2.05

C[C@@H]1[C@@H](CC(=O)O)c2cc(OCc3ccccc3)ccc2N1C(=O)C12CC3CC(CC(C3)C1)C2
Activity (HepG2 [1]): 2.1 mM | Activity (HepG2 [2]): 4.8% | Ratio [3]: 1.63 | Activity (Mus musculus [8]): Non-toxic

CCc1ccc(CCOc2ccc(CC3SC(=O)NC3=O)cc2)nc1 (stereo not drawn) [PIOGLITAZONE]
inhibition in vivo at 30 mg/kg (Mus musculus [6]): > 25% | inhibition in vivo at 30 mg/kg (Mus musculus [10]): > 30% | inhibition in vivo at 30 mg/kg (Mus musculus [7]): 30.6% | Activity (Mus musculus [11]): 16.3% | inhibition (Mus musculus [12]): Active

C[C@@H]1[C@@H](CC(=O)O)c2cc(OCCc3ccccc3)ccc2N1C(=O)c1ccc(Cl)cc1
Activity (HepG2 [1]): 2.05 mM | Activity (HepG2 [2]): 2.1% | Ratio [3]: 2

Cc1c(CC(=O)O)c2cc(OCc3ccccc3)ccc2n1C(=O)c1ccc(Cl)cc1
Activity (HepG2 [1]): 2.44 mM | Activity (HepG2 [2]): 21.9% | Ratio [3]: 3.82 | inhibition in vivo at 30 mg/kg (Mus musculus [6]): > 25% | inhibition in vivo at 30 mg/kg (Mus musculus [10]): > 30% | inhibition in vivo at 30 mg/kg (Mus musculus [7]): 13.5%

C[C@@H]1[C@@H](CC(=O)O)c2cc(OCc3ccccc3)ccc2N1C(=O)c1ccc(C(F)(F)F)cc1
Activity (HepG2 [1]): 2.2 mM | Activity (HepG2 [2]): 9.8% | Ratio [3]: 1.72

C[C@@H]1[C@@H](CC(=O)O)c2cc(OCCCCc3ccccc3)ccc2N1C(=O)c1ccc(Cl)cc1
Activity (HepG2 [1]): 1.98 mM | Activity (HepG2 [2]): -1.2% | Ratio [3]: 1.81

C[C@H]1[C@@H](CC(=O)O)c2cc(OCc3ccccc3)ccc2N1C(=O)c1ccc(Cl)cc1
Activity (HepG2 [1]): 2.01 mM | Activity (HepG2 [2]): 0.6% | Ratio [3]: 1.72

C[C@@H]1[C@@H](CC(=O)O)c2cc(OCc3ccccc3)ccc2N1S(=O)(=O)c1ccc(Cl)cc1
Activity (HepG2 [1]): 2.33 mM | Activity (HepG2 [2]): 16.3% | Ratio [3]: 2.37

COc1ccc(C(=O)N2c3ccc(OCc4ccccc4)cc3[C@H](CC(=O)O)[C@H]2C)cc1
Activity (HepG2 [1]): 2.22 mM | Activity (HepG2 [2]): 10.8% | Ratio [3]: 2.14

C[C@@H]1[C@@H](CC(=O)O)c2cc(OCc3cccnc3)ccc2N1C(=O)c1ccc(Cl)cc1
Activity (HepG2 [1]): 1.87 mM | Activity (HepG2 [2]): -6.7% | Ratio [3]: 1.62

C[C@@H]1[C@@H](CC(=O)O)c2cc(OCc3ccccc3)ccc2N1C(=O)c1ccc(F)cc1
Activity (HepG2 [1]): 2.24 mM | Activity (HepG2 [2]): 11.6% | Ratio [3]: 1.74

Cc1c(CCC(=O)O)c2cc(OCc3ccccc3)ccc2n1C(=O)c1ccc(Cl)cc1
Activity (HepG2 [1]): 2.53 mM | Activity (HepG2 [2]): 26.1% | Ratio [3]: 2.72 | Activity (HepG2 [4]): 14.1% | Activity (HepG2 [5]): 19.2% | Activity (Mus musculus [8]): Non-toxic

Cc1c(CCCC(=O)O)c2cc(OCc3ccccc3)ccc2n1C(=O)c1ccc(Cl)cc1
Activity (HepG2 [1]): 2.55 mM | Activity (HepG2 [2]): 27.3% | Ratio [3]: 3.28 | Activity (HepG2 [4]): 8.3% | Activity (HepG2 [5]): 12.5% | Activity (Mus musculus [8]): Non-toxic

CN(C)C(=N)NC(=N)N [METFORMIN]
Activity (HepG2 [13]): 51% | Activity (HepG2 [14]): 3.03 mM

Cc1c(CCC(=O)O)c2cc(OCc3ccccc3)ccc2n1S(=O)(=O)c1ccc(Cl)cc1
Activity (HepG2 [1]): 2.45 mM | Activity (HepG2 [2]): 22.1% | Ratio [3]: 2.48 | Activity (HepG2 [4]): 10.5% | Activity (HepG2 [5]): 17.7%

C[C@@H]1[C@@H](CC(=O)O)c2cc(OCc3ccccc3)ccc2N1C(=O)c1ccncc1
Activity (HepG2 [1]): 2.46 mM | Activity (HepG2 [2]): 22.6% | Ratio [3]: 1.73 | Activity (HepG2 [4]): -4.6% | Activity (HepG2 [5]): -4.1% | inhibition in vivo at 30 mg/kg (Mus musculus [10]): > 30% | inhibition in vivo at 30 mg/kg (Mus musculus [7]): 14.9% | inhibition (Mus musculus [12]): Active

CC(Oc1ccc2c(c1)[C@H](CC(=O)O)[C@@H](C)N2C(=O)c1ccc(Cl)cc1)c1ccccc1 (stereo partly drawn)
Activity (HepG2 [1]): 2.2 mM | Activity (HepG2 [2]): 9.8% | Ratio [3]: 1.66

C[C@@H]1[C@@H](CC(=O)O)c2cc(OCc3ccccc3)ccc2N1C(=O)c1ccccc1
Activity (HepG2 [1]): 2.14 mM | Activity (HepG2 [2]): 6.9% | Ratio [3]: 2.05
